The first assay has as its target human-KAT6A (MYST domain 507-778 aa) (Homo sapiens (Human), UniProt Q92794). Description: KAT6A biochemical assay (TR-FRET). Conditions: @ 10 μM; reported where IC50 could not be determined; read-out: Percent inhibition at specific concentration (KAT6A). An excerpt:
TR-FRET based methods were used for assaying compounds of the present invention for KAT6A enzyme inhibitory activity. TR-FRET is a homogeneous proximity assay where Europium-labelled anti-acetyl lysine antibody binds to the acetylated substrate labelled with biotin, which in turn binds to streptavidin-labelled APC fluorescence acceptor. Europium can transfer energy to APC in the complex and the interaction of two dye-labelled binding partners is detected by the energy transfer between a donor and an acceptor dye and the subsequent light emission by the acceptor dye. KAT6A transfer an acetyl group from acetyl CoA to lysine amino acids of histones/target proteins. […] The selected compound of the present invention and enzyme are incubated for 30 min on plate shaker at 300 rpm at 25° C. Next, 5 μL of substrate mix containing histone H4 peptide and acetyl-CoA in assay buffer is added to the plate. The final concentrations of H4 peptide and acetyl-CoA are 200 nM and 600 nM, respectively. Following 60 min reaction at 25° C. on plate shaker at 300 rpm, 5 μL of detection mix containing Europium-labelled anti-acetyl antibody and streptavidin-APC is added to the reaction wells. The plate is further incubated at 25° C. on shaker at 300 rpm and is read in TR-FRET mode (Ex:340 nm; Em: 615 nm and 665 nm) on a plate reader to achieve ˜5-7-fold activity. The percent inhibition was calculated from the ratio of the fluorescence (FL) intensities [(F665/F615)×10000) using the formula […]. IC50 values of the compounds were determined by fitting the dose-response data to sigmoidal curve fitting equation using Graph pad prism software V9.
human-KAT6A (MYST domain 507-778 aa), sequence (Q92794 507-778): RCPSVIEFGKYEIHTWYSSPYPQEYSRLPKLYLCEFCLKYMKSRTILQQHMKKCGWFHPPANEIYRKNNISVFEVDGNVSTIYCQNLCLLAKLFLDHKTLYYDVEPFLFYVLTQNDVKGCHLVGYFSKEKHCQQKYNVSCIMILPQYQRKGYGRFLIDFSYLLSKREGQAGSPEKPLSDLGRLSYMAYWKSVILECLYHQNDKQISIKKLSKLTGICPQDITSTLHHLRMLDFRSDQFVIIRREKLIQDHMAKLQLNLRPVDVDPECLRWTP
With `COc1cc(Cn2cccn2)cc(C(=O)NS(=O)(=O)c2c(OC)cccc2OC)c1` [Compound 6, 3-((1H-pyrazol-1-yl)methyl)-N-((2,6-dimethoxyphenyl)sulfonyl)-5-methoxybenzamide], the inhibition at 10 µM is 26%. Consider `COc1ccc(Cn2cccn2)cc1C(=O)NS(=O)(=O)c1cc(C(C)(C)C)ccc1OC` [Compound 9, 5-((1H-pyrazol-1-yl)methyl)-N-((5-(tert-butyl)-2-methoxyphenyl)sulfonyl)-2-methoxybenzamide], for which the inhibition at 10 µM stood at 13%.

Staying with this assay, now noted: KAT6A IC50 (nM), TR-FRET; histone H4 peptide 200 nM, acetyl-CoA 600 nM.
As to `COc1cc(C(=O)NS(=O)(=O)c2c(OC)cccc2OC)ccc1Cn1cccn1` [Compound 14, 4-((1H-pyrazol-1-yl)methyl)-N-((2,6-dimethoxyphenyl)sulfonyl)-3-methoxybenzamide], the IC50 is 7 nM.

The same assay, now with this note: TR-FRET; histone H4 peptide 200 nM, acetyl-CoA 600 nM; read-out: KAT6A IC50.
Consider “5-((1H-pyrazol-1-yl)methyl)-N-((5-(tert-butyl)-2-methoxyphenyl)sulfonyl)-4-methoxypyrimidine-2-carboxamide [Compound 264]”, for which the IC50 stood at 12 nM. The same measure, in the same setting: the figure for `CCOc1cccc(OC)c1S(=N)(=O)NC(=O)c1ccc(Cn2cccn2)c(OC)n1` (racemic) [Compound 294, 5-((1H-pyrazol-1-yl)methyl)-N-(2-ethoxy-6-methoxyphenylsulfonimidoyl)-6-methoxypicolinamide] is 35 nM; for `COc1ccc(C(C)(C)O)cc1S(=N)(=O)NC(=O)c1ccc(Cn2cccn2)c(OC)n1` (racemic) [Compound 297, 5-((1H-pyrazol-1-yl)methyl)-N-(5-(2-hydroxypropan-2-yl)-2-methoxyphenylsulfonimidoyl)-6-methoxypicolinamide] it is 39 nM; for `COc1cc(OC)c(S(=N)(=O)NC(=O)c2ccc(Cn3cccn3)c(OC)c2)c(OC)c1` (racemic) [Compound 299, 4-((1H-pyrazol-1-yl)methyl)-3-methoxy-N-(2,4,6-trimethoxyphenylsulfonimidoyl)benzamide] it is 25 nM. On the same count and under the same terms, in the case of `COc1cccc(OC)c1S(=N)(=O)NC(=O)c1ccc(Cn2cccn2)c(OC)n1` (single isomer, unassigned) [Compound 243a] it was 17 nM. `COc1cccc(OC)c1S(=N)(=O)NC(=O)c1ccc(Cn2cccn2)c(OC)n1` (single isomer, unassigned) [Compound 243b]: the IC50 is 82 nM. With `COc1cc(Cn2cccn2)ccc1C(=O)NS(=O)(=O)c1c(OC)cccc1OC` [Compound 1, 4-((1H-pyrazol-1-yl)methyl)-N-((2,6-dimethoxyphenyl)sulfonyl)-2-methoxybenzamide], the IC50 was 247 nM. Same read-out and setting: in the case of `COc1cc(Cn2cccn2)ccc1C(=O)NS(=O)(=O)c1ccccc1OC` [Compound 2, 4-((1H-pyrazol-1-yl)methyl)-2-methoxy-N-((2-methoxyphenyl)sulfonyl)benzamide] it was 741 nM; in that of `CCc1ccc(OC)c(S(=O)(=O)NC(=O)c2ccc(Cn3cccn3)cc2OC)c1` [Compound 3, 4-((1H-pyrazol-1-yl)methyl)-N-((5-ethyl-2-methoxyphenyl)sulfonyl)-2-methoxybenzamide], 137 nM; in that of `COc1cc(Cn2cccn2)ccc1C(=O)NS(=O)(=O)c1cc(C(C)(C)C)ccc1OC` [Compound 4], 82 nM. Turning to `COc1cc(Cn2cccn2)ccc1C(=O)NS(=O)(=O)c1cc2c(cc1OC)CCC2` [Compound 5, 4-((1H-pyrazol-1-yl)methyl)-2-methoxy-N-((6-methoxy-2,3-dihydro-1H-inden-5-yl)sulfonyl)benzamide], the IC50 worked out at 178 nM. Turning to `COc1ccc(C(C)(C)C)cc1S(=O)(=O)NC(=O)c1ccc(Cn2cccn2)cc1F` [Compound 7, 4-((1H-pyrazol-1-yl)methyl)-N-((5-(tert-butyl)-2-methoxyphenyl)sulfonyl)-2-fluorobenzamide], the IC50 stood at 99 nM. `COc1cc(C(=O)NS(=O)(=O)c2ccc(C(C)(C)C)cc2OC)ccc1Cn1cccn1` [Compound 8, 4-((1H-pyrazol-1-yl)methyl)-N-((4-(tert-butyl)-2-methoxyphenyl)sulfonyl)-3-methoxybenzamide]: the IC50 is 17 nM.

For the molecule `COc1cc(Cn2cccn2)ccc1C(=O)NS(=O)(=O)c1ccc(-n2cccn2)cc1OC` [Compound 10, 4-((1H-pyrazol-1-yl)methyl)-2-methoxy-N-((2-methoxy-4-(1H-pyrazol-1-yl)phenyl)sulfonyl)benzamide], the IC50 worked out at 1480 nM.

Take `COc1cc(Cn2cccn2)ccc1C(=O)NS(=O)(=O)c1ccc(C(C)(C)C)cc1OC` [Compound 11, 4-((1H-pyrazol-1-yl)methyl)-N-((4-(tert-butyl)-2-methoxyphenyl)sulfonyl)-2-methoxybenzamide]: the IC50 was determined as 500 nM.

On to `COc1cccc(OC)c1S(=O)(=O)NC(=O)c1ccc(Cn2cccn2)c(F)c1` [Compound 12, 4-((1H-pyrazol-1-yl)methyl)-N-((2,6-dimethoxyphenyl)sulfonyl)-3-fluorobenzamide], for which the IC50 turned out to be 48 nM. On the same count and under the same terms, the figure for `COc1ccc(C(C)(C)C)cc1S(=O)(=O)NC(=O)c1ccc(Cn2cccn2)c(F)c1` [Compound 13, 4-((1H-pyrazol-1-yl)methyl)-N-((5-(tert-butyl)-2-methoxyphenyl)sulfonyl)-3-fluorobenzamide] is 47 nM. Still for that read-out and setting: the figure for `COc1cc(C(=O)NS(=O)(=O)c2c(OC)cccc2OC)ccc1Cn1cccn1` [Compound 14, 4-((1H-pyrazol-1-yl)methyl)-N-((2,6-dimethoxyphenyl)sulfonyl)-3-methoxybenzamide] is 32 nM. On the same count and under the same terms, the figure for `COc1cc(Cn2cccn2)ccc1C(=O)NS(=O)(=O)c1cc2c(cc1OC)CCCC2` [Compound 15, 4-((1H-pyrazol-1-yl)methyl)-2-methoxy-N-((3-methoxy-5,6,7,8-tetrahydronaphthalen-2-yl)sulfonyl)benzamide] is 576 nM; for `COc1ccc(C(C)(C)C)cc1S(=O)(=O)NC(=O)c1ccc(Cn2cccn2)c(Br)c1` [Compound 16, 4-((1H-pyrazol-1-yl)methyl)-3-bromo-N-((5-(tert-butyl)-2-methoxyphenyl)sulfonyl)benzamide] it is 26 nM; for `COc1ccc(C(C)(C)C)cc1S(=O)(=O)NC(=O)c1ccc(Cn2cccn2)c(C2CC2)c1` [Compound 17, 4-((1H-pyrazol-1-yl)methyl)-N-((5-(tert-butyl)-2-methoxyphenyl)sulfonyl)-3-cyclopropylbenzamide] it is 20 nM. Consider `COc1ccc(C(C)(C)C)cc1S(=O)(=O)NC(=O)c1ccc(Cn2cccn2)c(C#N)c1` [Compound 18], for which the IC50 is 70 nM. For the molecule `COc1cc(C(=O)NS(=O)(=O)c2cc(-n3cccn3)ccc2OC)ccc1Cn1cccn1` [Compound 19, 4-((1H-pyrazol-1-yl)methyl)-3-methoxy-N-((2-methoxy-5-(1H-pyrazol-1-yl)phenyl)sulfonyl)benzamide], the IC50 is 42 nM. Same read-out and setting: in the case of `COc1ccc(C(C)(C)C)cc1S(=O)(=O)NC(=O)c1ccc(Cn2cccn2)c(C)c1` [Compound 20, 4-((1H-pyrazol-1-yl)methyl)-N-((5-(tert-butyl)-2-methoxyphenyl)sulfonyl)-3-methylbenzamide] it was 39 nM; in that of `CCOc1cc(C(=O)NS(=O)(=O)c2cc(C(C)(C)C)ccc2OC)ccc1Cn1cccn1` [Compound 21, 4-((1H-pyrazol-1-yl)methyl)-N-((5-(tert-butyl)-2-methoxyphenyl)sulfonyl)-3-ethoxybenzamide], 28 nM.

Consider `COc1cc(C(=O)NS(=O)(=O)c2ccccc2-c2ccccc2)ccc1Cn1cccn1` [Compound 22, 4-((1H-pyrazol-1-yl)methyl)-N-([1,1′-biphenyl]-2-ylsulfonyl)-3-methoxybenzamide], for which the IC50 came to 49 nM. On the same count and under the same terms, in the case of `COc1cc(C(=O)NS(=O)(=O)c2cccc(O)c2)ccc1Cn1cccn1` [Compound 23, 4-((1H-pyrazol-1-yl)methyl)-N-((3-hydroxyphenyl)sulfonyl)-3-methoxybenzamide] it was 32 nM; in that of `COc1cc(C(=O)NS(=O)(=O)c2cc(Br)ccc2OC)ccc1Cn1cccn1` [Compound 24, 4-((1H-pyrazol-1-yl)methyl)-N-((5-bromo-2-methoxyphenyl)sulfonyl)-3-methoxybenzamide], 12 nM. Still for that read-out and setting: in the case of `COc1ccc(C(C)(C)C)cc1S(=O)(=O)NC(=O)c1ccc(Cn2cccn2)c(C(F)(F)F)c1` [Compound 25, 4-((1H-pyrazol-1-yl)methyl)-N-((5-(tert-butyl)-2-methoxyphenyl)sulfonyl)-3-(trifluoromethyl)benzamide] it was 10 nM; in that of `COc1cc(C(=O)NS(=O)(=O)c2ccccc2OC)ccc1Cn1cccn1` [Compound 26, N-(2-methoxyphenyl)sulfonyl-3-methoxy-4-(pyrazol-1-ylmethyl)benzamide], 25 nM. Same read-out and setting: the figure for `COc1cc(C(=O)NS(=O)(=O)c2cc3c(cc2OC)CCC3)ccc1Cn1cccn1` [Compound 27, 4-((1H-pyrazol-1-yl)methyl)-3-methoxy-N-((6-methoxy-2,3-dihydro-1H-inden-5-yl)sulfonyl)benzamide] is 12 nM; for `COc1cccc(OC)c1S(=O)(=O)NC(=O)c1ccc(Cn2cccn2)c(C2CC2)c1` [Compound 28, 4-((1H-pyrazol-1-yl)methyl)-3-cyclopropyl-N-((2,6-dimethoxyphenyl)sulfonyl)benzamide] it is 19 nM.

For orientation: IC50 means the point on the concentration scale where inhibition reaches its midpoint.

(Values after patent US20250136553A1, “ACYLSULFONAMIDE KAT6A INHIBITORS” (Olema Pharmaceuticals, Inc., priority 2023, published 2025).)
